# Literature values, collected in patent US20240408101A1, “COMPOSITION AND METHODS OF TREATMENT USING […] - ENHANCED SUPPLEMENTATION” (Xygenyx Inc., priority 2023, published 2024).
# Where a SMILES comes first, the peptide text is derived from it.
# Tests used:
# [1] = mice
# skin [2] = details: as penetration enhancer for transdermal drugs
# [3] = system: wide dynamic range neurons in the ventroposterolateral nucleus of the thalamus
# [4] = in vivo
# skin [5] = details: topical application, concentrations 0.5-5%
# skin [6] = details: topical formulations, within four weeks of treatment
# [7] = dietary supplementation, doses up to 400 IU/day, controlled trials
# [8] = dietary supplementation, doses up to 400 IU/day
# [9] = in combination with 10-20 mg β-carotene and 400-500 mg vitamin C, doses around 400-500 IU
# [10] = compared to α-tocopherol taken as 1.0
# F2-isoprostane = details: large doses of 1600-3200 IU/day
# [11] = even when dietary intake occurs in equal portions
# [12] = in vivo; remark: listed apart in the source
molecule,measurement,setting,value
"CC(CN)C(=O)O [L-BAIBA, L-beta-aminoisobutyric acid]",tolerated dose,[1],10-100 mg/kg of bodyweight
CC(C)[C@@H]1CC[C@@H](C)C[C@H]1O [Menthol],"increase of transdermal drug uptake, factor",skin [2],≥ 10
"CCCCCc1cc(O)c2c(c1)OC(C)(C)C1CCC(C)=CC21 (centres unmarked) [THC, Δ-9-tetrahydrocannabinol]",analgesic power relative to morphine,[3],ten times more powerful than morphine
CCNC(=O)CC[C@H](N)C(=O)O [Theanine],dose considered safe and well-tolerated,[4],up to 400 mg per day
"C=CCCCCCCCCC(=O)N[C@@H](Cc1ccccc1)C(=O)O [UP, Undecylenoyl phenylalanine]",time to skin lightening effects,skin [5],≥ 7 days
"CC12CCC(CC1)C(C)(C)O2 [eucalyptol, 1,8-epoxy-p-menthane]","increase of transdermal drug uptake, factor",skin [2],more than 10
"CC[C@H](C)[C@H](NC(=O)[C@H](CC(=O)O)NC(=O)[C@@H](N)CCCCN)C(=O)N[C@@H](CCCNC(N)=O)C(N)=O [tripeptide-10 citrulline, Tripeptide-10 citrulline] (HELM PEPTIDE1{K.D.I.[Cit].[am]}$$$$V2.0)",improvement of suppleness,skin [6],≤ 54%
Cc1c(C)c2c(c(C)c1O)CC[C@@](C)(CCC[C@H](C)CCC[C@H](C)CCCC(C)C)O2 [α-tocopherol],reduction of risk of developing neurodegenerative diseases,[7],≤ 24%
same,reduction of risk of coronary disease,[8],up to 34%
same,reduction in the development of age-related cataracts,[9],23%
same,relative biological activity,[10],1.0
same,blood plasma concentration of F2-isoprostane,F2-isoprostane,significantly lower
Cc1cc(O)c(C)c2c1O[C@](C)(CCC[C@H](C)CCC[C@H](C)CCCC(C)C)CC2 [β-tocopherol],relative biological activity,[10],0.5
Cc1c(O)cc2c(c1C)O[C@](C)(CCC[C@H](C)CCC[C@H](C)CCCC(C)C)CC2 [γ-tocopherol],relative biological activity,[10],0.1
same,concentration in vivo relative to α-tocopherol,[11],roughly 10%
Cc1cc(O)cc2c1O[C@](C)(CCC[C@H](C)CCC[C@H](C)CCCC(C)C)CC2 [δ-tocopherol],relative biological activity,[10],0.03
HGH: hormone comprising a peptide chain synthesized in the pituitary gland,biological half-life,[12],10-20 minutes
